One assay addresses T1, PDHK2 (Homo sapiens, UniProt Q15119).
T1 construct: purchased Carna Bioscience
The assay is described as follows: Biochemical activity testing of PDHK2: PDC inactivation assay. Conditions: human rec PDHK2, PDC from porcine heart, ATP 5 μM; read-out: IC50 PDHK2 (enzyme assay). The text has this: Biochemical Activity Testing of PDHK2: PDC Inactivation Assay
The biochemical activity assay for PDHK2 is based on the inactivation of PDC through phosphorylation by PDHK2. The assay is run in two steps: the enzymatic PDHK2 reaction in which isolated PDC is phosphorylated by PDHK2 with ATP as co-substrate and the PDC activity assay in which pyruvate and NAD are converted to acetyl-CoA and NADH. The PDC activity correlates to the increase in NADH and thereby is detectable directly via the increasing fluorescence signal (Exc 340 nm, Em 450 nm). Inhibition of PDHK2 results in a lower phosphorylation status and thereby a less decrease in activity of PDC and a stronger increase in NADH fluorescence signal.
The PDC inactivation assay is performed in Greiner 384-well microtiter plates and is used for high throughput screen. 4 μl of PDHK2 (human, rec, Carna Bioscience, 10 ng/μl-137 nM final concentration) and PDC (isolated from porcine heart, Sigma-Aldrich, 20 mU/ml final concentration) are incubated in the absence or presence of the test compound (10 dilution concentrations) for 30 min at room temperature in kinase buffer (15 mM potassium phosphate buffer, pH 7.0, 60 mM KCl, 1.5 mM DTT, 2.5 mM MgCl2, 0.0125% (w/v) BSA, 0.125% Pluronic F-68). The kinase reaction is started by the addition of 4 μl ATP substrate solution (fc 5 μM in kinase buffer). After 30 min incubation at 37° C. 40 μl of PDC reaction solution (100 mM Tris/HCl, pH 7.8, 0.5 mM EDTA, 1 mM MgCl2, 50 mM NaF, 0.25 mM Coenzyme A, 5 mM pyruvate, 1 mM NAD, 5 mM DTT, […] thiamine pyrophosphate) is added. The first fluorescence measurement is performed on a Perkin Elmer Envision (Exc 340 nm, Em 450 nm). The reaction is incubated for 45 min at room temperature. Afterwards a second fluorescence measurement is performed and the PDC activity is calculated by the difference between both measurements. As full value for the PDHK2 assay the inhibitor-free PDHK2 reaction is used. The pharmacological zero value used is DCA (Sigma-Aldrich) in a final concentration of 3 mM. The inhibitory values (IC50) were determined using either the program Symyx Assay Explorer® or Condosseo® from GeneData.

For another assay, the target named is T2, human PDHK2 (12-407) (Homo sapiens, UniProt Q15119).
T2 construct: The human PDHK2 (12-407) was produced in E. coli; His-tag (cleaved yes); made in house; host or cells: E. coli
The assay is described as follows: Isothermal titration calorimetry (ITC) binding. The conditions noted are these: 30° C., pH 7.5. As to the method: Isothermal Titration Calorimetry
ITC measurements were performed with a VP-ITC micro calorimeter (Microcal, LLC/GE Healthcare Bio-Sciences AB, Uppsala, Sweden). In general titrations were performed by titrating the protein (50 μM) to the test compound (5 μM) in 12 μl injections. All binding experiments were carried out at 30° C. In general the test compounds were diluted form DMSO stock solutions into the measurement buffer with a maximum final concentration of 1% DMSO. The measurement buffer was 20 mM HEPES, 135 mM KCl, 1 mM TCEP, 2 mM MgCl2, 15 mM NaH2PO4, pH 7.5. The human PDHK2 (12-407) was produced in E. coli as his-tagged protein and purified by affinity chromatography. The tag was removed by side specific proteolysis. Before titration the protein buffer was changed to the measurement buffer containing the same DMSO concentration as the test compound dilution. ITC data analysis was performed using Origin 7 calorimetry software from the same supplier. For most measurements a binding model of one binding site was assumed. According to the applied mathematical model it is possible to calculate the binding constant (KA), the observed binding enthalpy (ΔH^obs) as well as the stoichiometry (N) of the formed complex. Preceding analysis the raw data was corrected for the heats of dilution by extrapolating from the saturation value from the end of titration. In order to allow for direct comparison between the respective experimental series and protein preparations the protein concentration was corrected by referencing titrations to a well behaved standard inhibitor. The apparent stoichiometry values defined the fraction of binding competent protein and compensated for relative errors in protein concentration measurements. This corrected protein concentration was used to set up ITC experiment series with test compounds. Any deviations from ideal 1:1 stoichiometry observed here were attributed to errors in compound concentration. This nominal compound concentration was corrected as well to achieve 1:1 stoichiometry in the fit.
For orientation: In ITC the heat of successive injections is recorded.

A word on the IC50: it is the concentration that inhibits the measured activity by half. By Kd is commonly meant the equilibrium constant for the complex coming apart. Higher therefore signals weaker binding.

For `C[C@@](O)(C(=O)N1CCC(c2ccn(-c3ccc(Cl)cn3)n2)CC1)C(F)(F)F` [Compound A29, (R)-1-{4-[1-(5-Chloro-pyridin-2-yl)-1H-pyrazol-3-yl]-piperidin-1-yl}-3,3,3-trifluoro-2-hydroxy-2-methyl-propan-1-one], the half-inhibitory concentration (IC50) at PDHK2 was 0.3 to 3 µM. The same compound returned a Kd on human PDHK2 (12-407) of 0.3 to 3 µM. In the case of `Cc1cc(C2CCN(C(=O)[C@@](C)(O)C(F)(F)F)CC2)nn1-c1ccc(Cl)cc1` [Compound A34, (R)-1-{4-[1-(4-Chloro-phenyl)-5-methyl-1H-pyrazol-3-yl]-piperidin-1-yl}-3,3,3-trifluoro-2-hydroxy-2-methyl-propan-1-one], on PDHK2, the half-inhibitory concentration (IC50) was 0.3 to 3 µM. Besides, at human PDHK2 (12-407), the Kd fell in the range of 0.3 to 3 µM. `Cc1cc(C2CCN(C(=O)[C@@](C)(O)C(F)(F)F)CC2)n(-c2ccc(Cl)cc2)n1` [Compound A50, (R)-1-{4-[2-(4-Chloro-phenyl)-5-methyl-2H-pyrazol-3-yl]-piperidin-1-yl}-3,3,3-trifluoro-2-hydroxy-2-methyl-propan-1-one]: the 50% inhibitory concentration (IC50) on PDHK2 is below 0.3 µM. This compound also gave an equilibrium dissociation constant (Kd) at human PDHK2 (12-407) below 0.3 µM. `Cn1nccc1C1CCN(C(=O)[C@@](C)(O)C(F)(F)F)CC1` [Compound A52, (R)-3,3,3-Trifluoro-2-hydroxy-2-methyl-1-[4-(2-methyl-2H-pyrazol-3-yl)piperidin-1-yl]-propan-1-one]: on PDHK2, the IC50 lay in the range of 0.3 to 3 µM. At human PDHK2 (12-407), this compound displayed a dissociation constant (Kd) of 0.3 to 3 µM. As for `C[C@@](O)(C(=O)N1CCC(n2cnnc2-c2ccc(Cl)cc2)CC1)C(F)(F)F` [Compound A56, (R)-1-{4-[3-(4-Chloro-phenyl)-[1,2,4]triazol-4-yl]-piperidin-1-yl}-3,3,3-trifluoro-2-hydroxy-2-methyl-propan-1-one], the IC50 on PDHK2 lay in the range of 0.3 to 3 µM. In addition, on human PDHK2 (12-407), the Kd lay in the range of 0.3 to 3 µM. Take `C[C@@](O)(C(=O)N1CCC(c2cnnn2-c2ccc(Cl)cc2)CC1)C(F)(F)F` [Compound A58, (R)-1-{4-[3-(4-Chloro-phenyl)-3H-[1,2,3]triazol-4-yl]-piperidin-1-yl}-3,3,3-trifluoro-2-hydroxy-2-methyl-propan-1-one]: the 50% inhibitory concentration (IC50) on PDHK2 lay in the range of 0.3 to 3 µM. The Kd on human PDHK2 (12-407) is 0.3 to 3 µM.

For `Cc1ccc(-n2nncc2C2CCN(C(=O)[C@@](C)(O)C(F)(F)F)CC2)c(F)c1` [Compound A60], the IC50 at PDHK2 lay in the range of 0.3 to 3 µM. The compound further displayed a Kd on human PDHK2 (12-407) of 0.3 to 3 µM. For `C[C@@](O)(C(=O)N1CCC(n2nccc2-c2ccccc2)CC1)C(F)(F)F` [Compound A66, (R)-3,3,3-Trifluoro-2-hydroxy-2-methyl-1-[4-(5-phenyl-pyrazol-1-yl)-piperidin-1-yl]-propan-1-one], the IC50 on PDHK2 was in the range of 0.3 to 3 µM. The Kd at human PDHK2 (12-407) was in the range of 0.3 to 3 µM. As for `Cn1ccc(C2CCN(C(=O)[C@@](C)(O)C(F)(F)F)CC2)n1` [Compound A99, (R)-3,3,3-Trifluoro-2-hydroxy-2-methyl-1-[4-(1-methyl-1H-pyrazol-3-yl)piperidin-1-yl]-propan-1-one], on PDHK2, the IC50 lay in the range of 3 to 50 µM. Take `C[C@@](O)(C(=O)N1CCC(c2ccn(-c3ncc(Cl)cn3)n2)CC1)C(F)(F)F` [Compound A103, (R)-1-{4-[1-(5-Chloro-pyrimidin-2-yl)-1H-pyrazol-3-yl]-piperidin-1-yl}-3,3,3-trifluoro-2-hydroxy-2-methyl-propan-1-one]: the half-inhibitory concentration (IC50) on PDHK2 was 3 to 50 µM. On the same count and under the same terms, then `C[C@@](O)(C(=O)N1CCC(c2ccn[nH]2)CC1)C(F)(F)F` [Compound A104, (R)-3,3,3-Trifluoro-2-hydroxy-2-methyl-1-[4-(2H-pyrazol-3-yl)-piperidin-1-yl]-propan-1-one], with 3 to 50 µM. Still for that read-out and setting: the same measure for `C[C@@](O)(C(=O)N1CCC(c2ccn(-c3ncc(F)cc3F)n2)CC1)C(F)(F)F` [Compound A109, (R)-1-{4-[1-(3,5-Difluoro-pyridin-2-yl)-1H-pyrazol-3-yl]-piperidin-1-yl}-3,3,3-trifluoro-2-hydroxy-2-methyl-propan-1-one]: 0.3 to 3 µM; for `CC(C)Cn1ccc(C2CCN(C(=O)[C@@](C)(O)C(F)(F)F)CC2)n1` [Compound A114, (R)-3,3,3-Trifluoro-2-hydroxy-1-[4-(1-isobutyl-1H-pyrazol-3-yl)-piperidin-1-yl]-2-methyl-propan-1-one]: 0.3 to 3 µM.

These data come from patent publication US9751861B2, “N1-(3,3,3-trifluoro-2-hydroxo-2-methylpropionyl)-piperidine derivatives as inhibitors of pyruvate dehydrogenase kinase” (MERCK PATENT GMBH, priority 2013, dated 2017).
